Several values for one entry are separate records, joined by “and”; a condition that tells them apart may be missing. Equal values may be shown once.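 Cultured in 96-well plates, cells were exposed to test compound for 48 hours across five concentrations. At the GI50, growth is halved. Definition used: TGI = concentration required for complete inhibition of growth.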
Columns and labels:
Assay in all cases: NCI tumour cell line growth inhibition, 48 h
A498 renal = test system: A498 renal
HOP-92 NSCLC = test system: HOP-92 NSCLC
HS 578T breast = test system: HS 578T breast
MOLT-4 leukemia = test system: MOLT-4 leukemia
NCI-H522 lung = test system: NCI-H522 lung
OVCAR-5 ovarian = test system: OVCAR-5 ovarian
SK-OV-3 ovarian = test system: SK-OV-3 ovarian
SN12C renal = test system: SN12C renal
HL-60(TB) leukemia = test system: HL-60(TB) leukemia
HT29 colon = test system: HT29 colon

Structure (SMILES)	TGI (A498 renal)	TGI (HOP-92 NSCLC)	TGI (HS 578T breast)	TGI (MOLT-4 leukemia)	TGI (NCI-H522 lung)	TGI (OVCAR-5 ovarian)	GI50 (SK-OV-3 ovarian)	TGI (SK-OV-3 ovarian)	TGI (SN12C renal)	GI50 (A498 renal) [µM]	GI50 (HL-60(TB) leukemia)	TGI (HL-60(TB) leukemia)	GI50 (HOP-92 NSCLC)	GI50 (HS 578T breast)	GI50 (HT29 colon)	TGI (HT29 colon)	GI50 (MOLT-4 leukemia)	GI50 (NCI-H522 lung)	GI50 (OVCAR-5 ovarian)	GI50 (SN12C renal)
CS(=O)(=O)c1ccc(C(=O)Nc2ccc(Cl)c(-c3ccccn3)c2)c(Cl)c1	> 100 µM and 46.3 µM	> 100 µM and 10.7 µM	> 100 µM	> 100 µM and 14.7 µM	> 94 µM and 9.43 µM	> 100 µM and 94.6 µM	> 100 µM	> 100 µM	> 100 µM and 51.3 µM	–	–	–	–	–	–	–	–	–	–	–
N=C(N)c1ccc(N2CCCN(c3ccc(C(=N)N)cc3)CC2)cc1	9.62 µM	> 100 µM	96.9 µM	> 100 µM	> 100 µM	> 100 µM	> 100 µM	> 100 µM	> 100 µM	1.76	> 100 µM	> 100 µM	89.6 µM	32.4 µM	74.5 µM	> 100 µM	> 100 µM	81.9 µM	> 100 µM	66.6 µM
CCCCCCCCCCCCCCCCCC(=O)OCC(COC1OC(COP(=O)(O)O)C(O)C(O)C1O)OC(=O)CCCCCCCCCCCCCCCCC (centres undefined)	12.5 µM	10.5 µM	17.4 µM	17.3 µM	–	11.4 µM	–	15.4 µM	14.1 µM	–	–	21.1 µM	–	–	–	11.7 µM	–	–	–	–
Cc1ccc(NC(=O)/C=C/c2ccccc2)c(C(N)=O)c1	34.6 µM	> 100 µM	6.63 µM	> 74.1 µM	9.06 µM	> 100 µM	3.26 µM	19.1 µM	> 100 µM	3.61	1.75 µM	6.7 µM	15.5 µM	1.69 µM	2.36 µM	30.8 µM	3.34 µM	1.89 µM	9.68 µM	7.76 µM
Cc1ccc(C(=O)Nc2cccc(C(F)(F)F)c2)cc1Nc1nc(-c2cccnc2)nc2c1cnn2C	5.01 µM	5.13 µM and 5.01 µM	7.14 µM and 4.91 µM	11 µM and > 10 µM	27.3 µM and 5.09 µM	15.1 µM and > 10 µM	4.48 µM and 3.79 µM	22.2 µM and > 10 µM	13.8 µM and > 10 µM	1.6	0.423 µM and 0.273 µM	3.59 µM and 3.57 µM	1.31 µM and 0.534 µM	1.94 µM and 1.41 µM	1.48 µM and 0.488 µM	35.1 µM and 4.49 µM	1.78 µM and 0.886 µM	4.68 µM and 1.37 µM	1.36 µM and 0.845 µM	2.45 µM and 1.7 µM
Cn1c2c(cc(S(=O)(=O)c3ccccc3)c1=O)CCc1c-2cnn1-c1ccc(Cl)cc1	5.03 µM	–	7.61 µM	> 100 µM	4.12 µM	> 100 µM	2.34 µM	5.24 µM	–	1.06	> 100 µM	> 100 µM	–	2.72 µM	3.31 µM	> 100 µM	> 100 µM	1.78 µM	3.37 µM	–
CC(=O)NC1=C(OS(=O)(=O)c2ccc(C)cc2)CN(C)C1=O	18 µM	8.49 µM	> 42.2 µM	17.9 µM	9.74 µM	32 µM	–	21 µM	16.4 µM	–	–	7.09 µM	–	–	–	20 µM	–	–	–	–
Cc1ccc(C2=NOC3=c4ccccc4=CSC3=C2c2ccc([N+](=O)[O-])cc2)cc1	26.9 µM	68.2 µM	94.9 µM	> 100 µM	68.5 µM	> 100 µM	6.91 µM	49 µM	> 100 µM	10.8	> 100 µM	> 100 µM	18 µM	22.9 µM	> 100 µM	> 100 µM	> 100 µM	12.5 µM	25.2 µM	18.3 µM
C=CC(=O)N1CCN(c2ccc3cccc(NC(=O)c4cnc(C)cn4)c3n2)CC1	4.19 µM	> 100 µM	26.3 µM	6.66 µM	17.8 µM	81.7 µM	–	–	16.2 µM	0.388	2.2 µM	6.61 µM	2.68 µM	2.28 µM	4.05 µM	> 100 µM	2.18 µM	1.99 µM	16.5 µM	2.47 µM
COc1ccc(C2CC(c3cc(OC)c(OC)c(OC)c3)=NN2C(C)=O)cc1OCC(=O)Nc1nc2ccc(C(F)(F)F)cc2s1 (centres undefined)	9.7 µM	4.02 µM	7.74 µM	–	> 100 µM	> 100 µM	5.75 µM	39.1 µM	> 100 µM	2.78	–	–	1.7 µM	2.48 µM	–	–	–	2.71 µM	28.2 µM	3.31 µM
O=C(NN1C(=O)CSC12CCCCC2)c1[nH]c2ccc(F)cc2c1-c1ccccc1	76.5 µM	40.9 µM	82.8 µM	41.7 µM	58.7 µM	> 100 µM	35.8 µM	> 100 µM	37.5 µM	27.1	–	–	17.8 µM	21.8 µM	17.8 µM	36.2 µM	13.9 µM	19.1 µM	37.6 µM	18.2 µM

— PubChem BioAssay (NCI)
